Data: ChEMBL document CHEMBL4177741, “NOTA analogue: A first dithiocarbamate inhibitor of metallo-β-lactamases” (Bioorg Med Chem Lett, 2018)
pIC50, pKi: −log10 of the molar value. Values after ≈ are worked out from the molar mass of the structure shown. Active and inactive are the calls of the source. The calls are words filed in the database; no cut-off is given here.

Experiments:
[1] = system: HeLa; test: Cytotoxicity in human HeLa cells assessed as inhibition of cell growth at 0.1% incubated for 24 hrs by calcein AM and propidium iodide staining based fluorescence microscopy; format: functional
[2] = system: Escherichia coli; test: Effect on cell growth of Escherichia coli expressing NDM1 assessed as cell growth level; format: organism-based
[3] = system: HeLa; test: Cytotoxicity in human HeLa cells assessed as inhibition of cell growth at 64 ug/ml incubated for 24 hrs by calcein AM and propidium iodide staining based fluorescence microscopy
[4] = system: Proteus mirabilis; test: (§1) Inhibition of NDM1 in Proteus mirabilis clinical isolates assessed as potentiation of meropenem-induced antibacterial activity by measuring meropenem MIC at 32 ug/ml incubated for 16 to 18 hrs by broth microdilution method
[5] = Cytotoxicity in human HeLa cells assessed as inhibition of cell growth at 1000 ug/ml incubated for 24 hrs by CCK8 assay; format: cell-based; conditions: read-out: GI
[6] = system: Citrobacter freundii; conditions: 64 ug/ml
Description: Inhibition of NDM1 in Citrobacter freundii clinical isolates assessed as potentiation of meropenem-induced antibacterial activity by measuring meropenem MIC at 64 ug/ml incubated for 16 to 18 hrs by broth microdilution method

[7] = system: HeLa; test: Cytotoxicity in human HeLa cells assessed as inhibition of cell growth at 128 ug/ml incubated for 24 hrs by calcein AM and propidium iodide staining based fluorescence microscopy
[8] = system: Citrobacter freundii; test: Inhibition of NDM1 in Citrobacter freundii clinical isolates assessed as potentiation of meropenem-induced antibacterial activity by measuring meropenem MIC at 32 ug/ml incubated for 16 to 18 hrs by broth microdilution method
[9] = system: Erythrocyte; test: Hemolytic activity in sheep RBCs at 10000 ug/ml incubated for 1 hr; format: ADME, cell-based, Ovis aries
[10] = system: Escherichia coli; test: Potentiation of meropenem-induced antibacterial activity in Escherichia coli expressing NDM1 assessed as meropenem inhibition zone incubated for 16 to 18 hrs by CLSI protocol based disc diffusion method (reference value: 10.76 mm); format: functional
[11] = system: Escherichia coli; test: Effect on cell growth of Escherichia coli expressing NDM1 incubated for 16 to 18 hrs by CLSI protocol based method; format: organism-based
[12] = system: Proteus mirabilis; test: as §1; remark: listed apart in the source
[13] = system: Proteus mirabilis; conditions: 64 ug/ml
Description: (§2) Inhibition of NDM1 in Proteus mirabilis clinical isolates assessed as potentiation of meropenem-induced antibacterial activity by measuring meropenem MIC at 64 ug/ml incubated for 16 to 18 hrs by broth microdilution method

[14] = system: Proteus mirabilis; conditions: 64 ug/ml; remark: listed apart in the source
Description: as §2

[15] = target: Beta-lactamase NDM-1 (Escherichia coli) (UniProt E5KIY2)
Description: Inhibition of NDM1 in Escherichia coli clinical isolates assessed as potentiation of meropenem-induced antibacterial activity by measuring meropenem MIC at 32 ug/ml incubated for 16 to 18 hrs by broth microdilution method (Rvb = 80 ug/ml)

[16] = target: T1, Beta-lactamase NDM-1 (Escherichia coli, UniProt E5KIY2)
Description: Inhibition of NDM1 in Escherichia coli BL21 (DE3) using MEPM substrate incubated for 15 mins by UV spectroscopy

[17] = target: Metallo-beta-lactamase type 2 (Klebsiella pneumoniae) (UniProt C7C422)
[18] = system: Proteus mirabilis; test: as §1; remark: listed apart in the source
[19] = target: T1, Beta-lactamase NDM-1; remark: listed apart in the source
Description: Non-competitive inhibition of NDM1 in Escherichia coli BL21 (DE3) using MEPM substrate incubated for 15 mins by UV spectroscopy based L-B plot

[20] = target: Beta-lactamase NDM-1 (Escherichia coli) (UniProt E5KIY2); test: Inhibition of NDM1 in Escherichia coli assessed as potentiation of 0.125 ug/ml meropenem-induced antibacterial activity by measuring bacterial count at 32 ug/ml incubated for 3 hrs by time-dependent killing assay (reference value: […])
[21] = target: Metallo-beta-lactamase type 2 (Klebsiella pneumoniae) (UniProt C7C422); remark: listed apart in the source
Description: Inhibition of NDM1 in Klebsiella pneumoniae clinical isolates assessed as potentiation of meropenem-induced antibacterial activity by measuring meropenem MIC at 32 ug/ml incubated for 16 to 18 hrs by broth microdilution method (Rvb = 80 ug/ml)

[22] = target: Beta-lactamase NDM-1 (Escherichia coli) (UniProt E5KIY2); remark: listed apart in the source
Description: Inhibition of NDM1 in Escherichia coli clinical isolates assessed as potentiation of meropenem-induced antibacterial activity by measuring meropenem MIC at 32 ug/ml incubated for 16 to 18 hrs by broth microdilution method (Rvb = 320 ug/ml)

[23] = target: Beta-lactamase NDM-1 (Escherichia coli) (UniProt E5KIY2); remark: listed apart in the source
[24] = target: Beta-lactamase NDM-1 (Escherichia coli) (UniProt E5KIY2); remark: listed apart in the source
Description: Inhibition of NDM1 in Escherichia coli assessed as potentiation of meropenem-induced antibacterial activity by measuring meropenem inhibition zone at 0.1mol/L incubated for 16 to 18 hrs by CLSI protocol based disc diffusion method

With `CC(C)(C)CC(C)(C)c1ccc(OCCOCCOCCOCCOCCOCCOCCO)cc1` the Activity [1] was “Active”.
For `S=C([S-])N1CCN(C(=S)[S-])CCN(C(=S)[S-])CC1.[Na+].[Na+].[Na+]`, the Activity [2] was 90%, the Activity [3] was “Non-Toxic” and the MIC [4] was over 16 µg/mL. The inhibition at 24 h, 1000 ug/ml [5] was 20%, the MIC [6] was 0.5 µg/mL and the Activity [7] was “Non-Toxic”. The MIC [8] was 4 µg/mL, the Activity [9] was “Non-Toxic” and the “inhibition zone (IZ)” value [10] was 15.9 mm. The MIC [11] was over 128 µg/mL, the MIC [12] was 4 µg/mL and the MIC [13] was over 16 µg/mL. For the same compound, the MIC [14] was 4 µg/mL.
In the case of `O=C(O)CN1CCN(CC(=O)O)CCN(CC(=O)O)CC1`, the Activity [2] was 90%, the MIC [15] was 0.125 µg/mL (≈ 0.412 µM) and the pIC50 [16] was 6.96. For the same compound, the MIC [4] was 2 µg/mL, the MIC [8] was 0.06 µg/mL and the MIC [17] was 1 µg/mL (≈ 3.3 µM). It also gave an MIC [18] of 0.5 µg/mL, a pKi [19] of 5.29 and an Activity [20] of 10000 to 1e+06 CFU/mL. For the same compound, the MIC [11] was over 128 µg/mL, the MIC [12] was 0.5 µg/mL and the MIC [21] was 2 µg/mL (≈ 6.59 µM). It also gave an MIC [22] of 0.125 µg/mL (≈ 0.412 µM) and an MIC [23] of under 0.03 µg/mL.
`O=C(O)CN(CCN(CC(=O)O)CC(=O)O)CC(=O)O` showed an IZ [24] of 21.7 mm.
